Calls of active or inactive are those of the source.
What was measured:
[1] = target: T1, Nucleotide-binding oligomerization domain-containing protein 1 (Homo sapiens, UniProt Q9Y239); assay: blockers of NOD1 pathway activity – revised, SAR follow-up (AID 2333); assay type: functional
T1 sequence (Q9Y239 whole entry): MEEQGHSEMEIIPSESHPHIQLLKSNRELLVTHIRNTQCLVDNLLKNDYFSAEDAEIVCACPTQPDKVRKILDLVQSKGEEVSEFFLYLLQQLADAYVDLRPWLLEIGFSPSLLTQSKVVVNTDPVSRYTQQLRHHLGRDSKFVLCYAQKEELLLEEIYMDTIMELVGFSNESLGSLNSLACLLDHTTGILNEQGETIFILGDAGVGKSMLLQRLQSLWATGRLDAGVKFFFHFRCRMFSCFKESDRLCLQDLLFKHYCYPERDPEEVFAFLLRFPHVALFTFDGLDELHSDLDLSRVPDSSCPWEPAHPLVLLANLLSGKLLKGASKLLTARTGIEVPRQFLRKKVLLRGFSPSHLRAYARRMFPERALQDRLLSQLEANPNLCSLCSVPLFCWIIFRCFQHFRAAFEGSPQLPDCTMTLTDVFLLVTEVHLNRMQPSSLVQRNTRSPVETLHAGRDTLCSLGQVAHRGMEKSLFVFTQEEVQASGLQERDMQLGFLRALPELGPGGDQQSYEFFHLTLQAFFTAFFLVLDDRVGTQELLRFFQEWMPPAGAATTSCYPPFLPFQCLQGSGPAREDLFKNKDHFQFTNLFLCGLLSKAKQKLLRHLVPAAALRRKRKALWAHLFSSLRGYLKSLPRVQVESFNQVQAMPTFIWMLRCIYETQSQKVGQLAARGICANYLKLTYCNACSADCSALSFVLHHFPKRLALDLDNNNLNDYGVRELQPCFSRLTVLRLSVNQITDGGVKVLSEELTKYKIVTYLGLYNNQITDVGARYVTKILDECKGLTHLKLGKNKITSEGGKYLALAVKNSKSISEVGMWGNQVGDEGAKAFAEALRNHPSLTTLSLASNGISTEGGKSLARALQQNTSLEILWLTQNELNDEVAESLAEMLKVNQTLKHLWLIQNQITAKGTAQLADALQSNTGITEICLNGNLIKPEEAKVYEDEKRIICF

HEK293 [2] = assay: cells; conditions: Homo sapiens
Tumor necrosis factor [3] = target: T2, Tumor necrosis factor (Homo sapiens, UniProt P01375); assay: analog potency on TNFa NF-kB signaling – cell-based, revised, SAR follow-up (AID 2337); assay type: functional
T2 sequence (P01375 whole entry): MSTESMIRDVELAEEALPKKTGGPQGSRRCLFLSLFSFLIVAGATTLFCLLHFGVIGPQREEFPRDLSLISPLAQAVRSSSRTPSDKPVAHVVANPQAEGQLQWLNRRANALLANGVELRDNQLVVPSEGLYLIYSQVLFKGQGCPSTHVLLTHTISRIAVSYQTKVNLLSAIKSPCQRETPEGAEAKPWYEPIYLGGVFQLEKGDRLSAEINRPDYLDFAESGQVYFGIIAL

[4] = target: T3, E3 ubiquitin-protein ligase XIAP (Homo sapiens, UniProt P98170); assay: small molecules displacing peptide from XIAP – biochemical, IAP family, fluorescence polarization (AID 1018); assay type: functional
T3 sequence (P98170 whole entry): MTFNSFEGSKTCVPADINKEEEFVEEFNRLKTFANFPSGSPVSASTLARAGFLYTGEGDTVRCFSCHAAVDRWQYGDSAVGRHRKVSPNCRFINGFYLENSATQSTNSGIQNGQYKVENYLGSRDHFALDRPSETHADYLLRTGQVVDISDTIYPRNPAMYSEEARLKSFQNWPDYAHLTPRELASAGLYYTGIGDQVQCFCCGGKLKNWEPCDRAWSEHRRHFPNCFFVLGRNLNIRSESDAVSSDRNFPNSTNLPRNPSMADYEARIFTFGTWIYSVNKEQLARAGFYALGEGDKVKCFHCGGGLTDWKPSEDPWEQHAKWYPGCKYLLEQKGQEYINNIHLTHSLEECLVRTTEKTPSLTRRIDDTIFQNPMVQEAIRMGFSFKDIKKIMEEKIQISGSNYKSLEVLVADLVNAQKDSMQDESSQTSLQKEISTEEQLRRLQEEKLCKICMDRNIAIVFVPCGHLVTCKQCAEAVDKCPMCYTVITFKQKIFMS

[5] = target: T4, Corticotropin-releasing factor receptor 2/Corticotropin-releasing factor-binding protein (Homo sapiens, UniProt P24387+Q13324); assay: activators of CRF receptor 2 with binding protein – uHTS hits, confirmation (AID 602473); assay type: functional; conditions: read-out: EC50_Mean
T4 sequence (Q13324 whole entry): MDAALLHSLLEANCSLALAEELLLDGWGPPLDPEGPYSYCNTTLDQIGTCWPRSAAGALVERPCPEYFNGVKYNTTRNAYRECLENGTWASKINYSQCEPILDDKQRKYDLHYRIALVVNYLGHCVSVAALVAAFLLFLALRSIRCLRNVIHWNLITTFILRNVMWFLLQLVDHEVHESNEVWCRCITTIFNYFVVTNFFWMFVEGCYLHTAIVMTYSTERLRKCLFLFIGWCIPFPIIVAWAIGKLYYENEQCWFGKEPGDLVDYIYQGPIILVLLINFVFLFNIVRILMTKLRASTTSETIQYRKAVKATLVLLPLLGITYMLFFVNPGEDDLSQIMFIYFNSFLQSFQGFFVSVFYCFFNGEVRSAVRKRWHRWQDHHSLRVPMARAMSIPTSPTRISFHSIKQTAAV
T4 sequence (P24387 whole entry): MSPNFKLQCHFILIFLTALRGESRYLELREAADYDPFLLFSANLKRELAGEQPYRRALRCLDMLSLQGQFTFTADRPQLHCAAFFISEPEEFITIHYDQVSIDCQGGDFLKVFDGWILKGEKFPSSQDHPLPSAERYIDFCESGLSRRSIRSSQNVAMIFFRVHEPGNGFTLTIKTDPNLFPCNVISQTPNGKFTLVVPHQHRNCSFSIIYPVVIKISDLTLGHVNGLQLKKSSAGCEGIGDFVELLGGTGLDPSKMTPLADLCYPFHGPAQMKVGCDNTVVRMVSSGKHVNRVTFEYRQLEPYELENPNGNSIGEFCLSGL

[6] = target: T4, Corticotropin-releasing factor receptor 2/Corticotropin-releasing factor-binding protein; assay: Dose Response confirmation of uHTS hits for small molecule antagonists of the CRF-binding protein and CRF-R2 receptor complex.; assay type: functional; conditions: read-out: IC50_Mean
[7] = target: T3, E3 ubiquitin-protein ligase XIAP; assay: Counter Screen using XIAP-Bir3 for Chemical Antagonists of Bir1/2 domains of IAP-family anti-apoptotic proteins. [Related pubchem assays (depositor defined):AID1018, AID1449, AID1514, AID1638, AID1749, AID1750, AID488957, AID488963]
[8] = target: Nucleotide-binding oligomerization domain-containing protein 2 (Homo sapiens, UniProt Q9HC29); assay: inhibition of MDP-driven NOD2 NF-kB reporter – cell-based, set 3, SAR follow-up (AID 2799); assay type: functional
Tumor necrosis factor [9] = target: T2, Tumor necrosis factor; assay: analog potency on TNFa NF-kB signaling – cell-based, set 3, SAR follow-up (AID 2801); assay type: functional
HEK293 [10] = assay: SAR analysis of compounds that are cytotoxic to HEK293 - Set 3. [Related pubchem assays (depositor defined):AID1575, AID1578, AID1848, AID1849, AID2001, AID2333, AID2334, AID2335, AID2337, AID2469]; assay type: functional, cell-based; conditions: Homo sapiens
[11] = target: T1, Nucleotide-binding oligomerization domain-containing protein 1; assay: SAR analysis of compounds that inhibit NOD1 - Set 3. [Related pubchem assays (depositor defined):AID1566, AID1575, AID1578, AID1849, AID1852, AID2333, AID2335, AID2466]; assay type: functional
[12] = target: T5, Mannose-6-phosphate isomerase (Homo sapiens, UniProt P34949); assay: phosphomannose isomerase inhibition – biochemical, fluorescence intensity, confirmation (AID 1535)
T5 sequence (P34949 whole entry): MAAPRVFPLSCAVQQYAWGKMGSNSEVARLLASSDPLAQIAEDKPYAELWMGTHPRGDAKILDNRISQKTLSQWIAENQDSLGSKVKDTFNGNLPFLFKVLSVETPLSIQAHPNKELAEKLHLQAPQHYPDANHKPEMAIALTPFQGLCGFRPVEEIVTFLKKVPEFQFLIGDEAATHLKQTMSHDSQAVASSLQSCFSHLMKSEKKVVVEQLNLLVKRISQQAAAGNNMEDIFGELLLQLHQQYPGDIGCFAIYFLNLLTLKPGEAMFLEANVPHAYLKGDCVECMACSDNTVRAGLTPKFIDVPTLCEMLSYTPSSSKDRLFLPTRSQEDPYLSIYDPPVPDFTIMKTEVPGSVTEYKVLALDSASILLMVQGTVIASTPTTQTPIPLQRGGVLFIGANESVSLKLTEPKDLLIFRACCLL

[13] = target: T5, Mannose-6-phosphate isomerase; assay: MPI enzyme activity inhibition – biochemical, fluorescence intensity, coupled assay, primary screen (AID 1209)
Phosphomannomutase 2 = Phosphomannomutase 2 (Homo sapiens, UniProt O15305); assay: Counter screen SAR assay for PMM2 inhibitors via a fluorescence intensity assay. [Related pubchem assays (depositor defined):AID1545, AID1574]
Chain of Phosphomannomutase 2 (O15305 whole entry): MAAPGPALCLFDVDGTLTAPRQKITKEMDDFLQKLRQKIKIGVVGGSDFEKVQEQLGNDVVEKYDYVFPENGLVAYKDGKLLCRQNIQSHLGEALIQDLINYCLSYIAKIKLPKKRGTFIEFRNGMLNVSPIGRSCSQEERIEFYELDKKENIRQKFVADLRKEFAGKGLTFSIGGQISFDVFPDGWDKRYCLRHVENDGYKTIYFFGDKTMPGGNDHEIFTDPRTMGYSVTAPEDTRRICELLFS

SUMO-activating enzyme = SUMO-activating enzyme (Homo sapiens, UniProt Q9UBT2); assay: blockers of UBC9-mediated SUMO conjugation – biochemical, AlphaScreen, SUMOylation inhibitor project, confirmation (AID 2018); assay type: functional
Chain of SUMO-activating enzyme (Q9UBE0 whole entry): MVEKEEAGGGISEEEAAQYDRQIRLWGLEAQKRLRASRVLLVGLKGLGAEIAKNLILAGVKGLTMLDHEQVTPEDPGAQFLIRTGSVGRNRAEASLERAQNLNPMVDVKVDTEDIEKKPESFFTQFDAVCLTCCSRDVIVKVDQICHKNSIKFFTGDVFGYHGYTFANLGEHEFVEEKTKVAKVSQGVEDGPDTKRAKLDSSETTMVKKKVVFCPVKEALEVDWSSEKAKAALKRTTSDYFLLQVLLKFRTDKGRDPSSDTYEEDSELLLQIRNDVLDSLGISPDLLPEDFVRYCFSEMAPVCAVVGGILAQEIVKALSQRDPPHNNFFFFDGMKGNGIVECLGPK
Chain of SUMO-activating enzyme (Q9UBT2 whole entry): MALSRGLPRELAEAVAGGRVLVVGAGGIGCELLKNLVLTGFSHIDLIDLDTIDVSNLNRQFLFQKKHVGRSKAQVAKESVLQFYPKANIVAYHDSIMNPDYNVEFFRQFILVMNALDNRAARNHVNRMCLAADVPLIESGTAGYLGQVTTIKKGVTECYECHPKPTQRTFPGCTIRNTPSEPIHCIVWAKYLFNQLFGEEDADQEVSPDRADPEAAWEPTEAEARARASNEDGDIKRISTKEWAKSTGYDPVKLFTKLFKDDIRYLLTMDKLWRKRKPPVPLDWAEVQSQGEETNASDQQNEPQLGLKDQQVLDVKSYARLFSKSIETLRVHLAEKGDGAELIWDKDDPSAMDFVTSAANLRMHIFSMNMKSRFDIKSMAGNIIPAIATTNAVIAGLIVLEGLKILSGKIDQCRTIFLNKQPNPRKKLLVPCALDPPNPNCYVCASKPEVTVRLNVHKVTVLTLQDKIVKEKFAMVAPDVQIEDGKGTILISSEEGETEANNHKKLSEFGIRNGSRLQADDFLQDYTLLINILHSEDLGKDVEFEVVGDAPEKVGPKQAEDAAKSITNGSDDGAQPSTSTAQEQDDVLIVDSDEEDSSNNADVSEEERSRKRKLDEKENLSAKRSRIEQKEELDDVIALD

[14] = target: Lysine-specific demethylase 4A (Homo sapiens, UniProt O75164); assay: inhibition of JMJD2A H3K9me3 demethylation – biochemical, DELFIA europium, cherry-picked samples, selectivity assay for GASC-1 inhibitor project, dose response (AID 488840)
[15] = target: T6, Beta-adrenergic receptor kinase 1 (Homo sapiens, UniProt P25098); assay: blockers of aptamer binding to GRK2 – biochemical, flow cytometry beads, FAM-aptamer, powder set 1, dose response (AID 588720)
T6 sequence (P25098 whole entry): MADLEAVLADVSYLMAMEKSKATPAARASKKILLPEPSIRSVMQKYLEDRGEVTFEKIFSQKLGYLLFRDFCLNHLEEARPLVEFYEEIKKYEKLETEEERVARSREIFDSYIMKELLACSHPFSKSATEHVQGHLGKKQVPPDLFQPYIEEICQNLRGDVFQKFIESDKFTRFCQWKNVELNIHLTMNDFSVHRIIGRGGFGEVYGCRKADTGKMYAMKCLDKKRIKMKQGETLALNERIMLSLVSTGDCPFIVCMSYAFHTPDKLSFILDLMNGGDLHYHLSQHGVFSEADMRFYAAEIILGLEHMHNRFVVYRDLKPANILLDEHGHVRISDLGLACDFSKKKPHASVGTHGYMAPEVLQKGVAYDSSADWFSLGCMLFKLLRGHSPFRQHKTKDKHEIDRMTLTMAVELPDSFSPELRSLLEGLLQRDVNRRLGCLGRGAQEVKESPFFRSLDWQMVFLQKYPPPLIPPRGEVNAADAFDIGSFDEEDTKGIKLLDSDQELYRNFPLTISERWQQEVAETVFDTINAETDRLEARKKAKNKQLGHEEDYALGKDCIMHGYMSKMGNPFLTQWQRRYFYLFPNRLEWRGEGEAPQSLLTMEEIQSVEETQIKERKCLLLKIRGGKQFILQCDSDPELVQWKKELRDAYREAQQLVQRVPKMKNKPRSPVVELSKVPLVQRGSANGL

[16] = target: T7, Polyadenylate-binding protein 1 (Homo sapiens, UniProt P11940); assay: MLLE binding blockers, Cy5 peptide tracer – biochemical, fluorescence polarization, Cy5-PAM2 peptide, secondary, miRNA deadenylation inhibitor project, dose response (AID 602260); assay type: functional; conditions: read-out: IC50_Mean
T7 sequence (P11940 whole entry, the tested form may be a part): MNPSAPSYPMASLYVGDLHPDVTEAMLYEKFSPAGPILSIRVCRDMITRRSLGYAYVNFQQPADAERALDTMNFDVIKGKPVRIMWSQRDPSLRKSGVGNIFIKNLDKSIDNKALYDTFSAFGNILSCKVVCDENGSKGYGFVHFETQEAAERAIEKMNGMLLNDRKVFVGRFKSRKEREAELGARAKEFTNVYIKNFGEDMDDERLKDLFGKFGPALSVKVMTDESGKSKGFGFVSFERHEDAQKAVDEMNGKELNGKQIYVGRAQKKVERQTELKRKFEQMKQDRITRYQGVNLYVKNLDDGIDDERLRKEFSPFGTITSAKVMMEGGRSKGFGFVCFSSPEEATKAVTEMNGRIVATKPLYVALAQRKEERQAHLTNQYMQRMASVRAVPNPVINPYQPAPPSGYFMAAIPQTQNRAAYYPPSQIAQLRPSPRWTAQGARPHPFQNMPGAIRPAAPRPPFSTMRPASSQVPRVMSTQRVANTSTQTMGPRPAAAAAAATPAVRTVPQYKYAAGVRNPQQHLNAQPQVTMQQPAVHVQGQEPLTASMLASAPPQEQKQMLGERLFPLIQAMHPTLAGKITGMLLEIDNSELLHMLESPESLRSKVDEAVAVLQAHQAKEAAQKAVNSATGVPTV

[17] = target: T7, Polyadenylate-binding protein 1; assay: MLLE domain peptide-binding blockers, IC50 – biochemical, fluorescence polarization, FITC-PAM2 peptide, dose response (AID 602259); assay type: functional; conditions: read-out: IC50_Mean
[18] = target: Peroxisome proliferator-activated receptor gamma/Nuclear receptor coactivator 3 (Homo sapiens, UniProt P37231); assay: TR-FRET dose response biochemical High Throughput Screening assay for agonists of the steroid receptor coactivator 3 (SRC-3) recruitment by the peroxisome proliferator-activated receptor gamma (PPAR gamma): non-selective agonists. [Related pubchem assays: 1301 (Confirmation screen.), 1048 (Primary screen.)]; assay type: functional
Chain of Peroxisome proliferator-activated receptor gamma/Nuclear receptor coactivator 3 (P37231 whole entry): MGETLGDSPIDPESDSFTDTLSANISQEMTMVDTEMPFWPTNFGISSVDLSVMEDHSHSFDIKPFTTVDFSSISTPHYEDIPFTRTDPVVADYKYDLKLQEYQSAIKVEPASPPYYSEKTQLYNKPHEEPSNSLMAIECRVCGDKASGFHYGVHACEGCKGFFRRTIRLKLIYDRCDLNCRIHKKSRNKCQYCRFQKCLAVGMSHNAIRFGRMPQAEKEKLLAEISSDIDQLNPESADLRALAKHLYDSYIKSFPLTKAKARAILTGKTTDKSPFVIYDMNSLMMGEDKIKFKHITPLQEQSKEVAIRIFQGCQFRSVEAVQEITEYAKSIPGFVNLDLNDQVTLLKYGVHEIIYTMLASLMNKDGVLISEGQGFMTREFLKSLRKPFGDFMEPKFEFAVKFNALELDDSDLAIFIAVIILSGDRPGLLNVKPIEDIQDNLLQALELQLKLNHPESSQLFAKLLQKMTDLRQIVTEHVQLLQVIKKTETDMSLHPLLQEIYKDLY
Chain of Peroxisome proliferator-activated receptor gamma/Nuclear receptor coactivator 3 (Q9Y6Q9 whole entry, further chain): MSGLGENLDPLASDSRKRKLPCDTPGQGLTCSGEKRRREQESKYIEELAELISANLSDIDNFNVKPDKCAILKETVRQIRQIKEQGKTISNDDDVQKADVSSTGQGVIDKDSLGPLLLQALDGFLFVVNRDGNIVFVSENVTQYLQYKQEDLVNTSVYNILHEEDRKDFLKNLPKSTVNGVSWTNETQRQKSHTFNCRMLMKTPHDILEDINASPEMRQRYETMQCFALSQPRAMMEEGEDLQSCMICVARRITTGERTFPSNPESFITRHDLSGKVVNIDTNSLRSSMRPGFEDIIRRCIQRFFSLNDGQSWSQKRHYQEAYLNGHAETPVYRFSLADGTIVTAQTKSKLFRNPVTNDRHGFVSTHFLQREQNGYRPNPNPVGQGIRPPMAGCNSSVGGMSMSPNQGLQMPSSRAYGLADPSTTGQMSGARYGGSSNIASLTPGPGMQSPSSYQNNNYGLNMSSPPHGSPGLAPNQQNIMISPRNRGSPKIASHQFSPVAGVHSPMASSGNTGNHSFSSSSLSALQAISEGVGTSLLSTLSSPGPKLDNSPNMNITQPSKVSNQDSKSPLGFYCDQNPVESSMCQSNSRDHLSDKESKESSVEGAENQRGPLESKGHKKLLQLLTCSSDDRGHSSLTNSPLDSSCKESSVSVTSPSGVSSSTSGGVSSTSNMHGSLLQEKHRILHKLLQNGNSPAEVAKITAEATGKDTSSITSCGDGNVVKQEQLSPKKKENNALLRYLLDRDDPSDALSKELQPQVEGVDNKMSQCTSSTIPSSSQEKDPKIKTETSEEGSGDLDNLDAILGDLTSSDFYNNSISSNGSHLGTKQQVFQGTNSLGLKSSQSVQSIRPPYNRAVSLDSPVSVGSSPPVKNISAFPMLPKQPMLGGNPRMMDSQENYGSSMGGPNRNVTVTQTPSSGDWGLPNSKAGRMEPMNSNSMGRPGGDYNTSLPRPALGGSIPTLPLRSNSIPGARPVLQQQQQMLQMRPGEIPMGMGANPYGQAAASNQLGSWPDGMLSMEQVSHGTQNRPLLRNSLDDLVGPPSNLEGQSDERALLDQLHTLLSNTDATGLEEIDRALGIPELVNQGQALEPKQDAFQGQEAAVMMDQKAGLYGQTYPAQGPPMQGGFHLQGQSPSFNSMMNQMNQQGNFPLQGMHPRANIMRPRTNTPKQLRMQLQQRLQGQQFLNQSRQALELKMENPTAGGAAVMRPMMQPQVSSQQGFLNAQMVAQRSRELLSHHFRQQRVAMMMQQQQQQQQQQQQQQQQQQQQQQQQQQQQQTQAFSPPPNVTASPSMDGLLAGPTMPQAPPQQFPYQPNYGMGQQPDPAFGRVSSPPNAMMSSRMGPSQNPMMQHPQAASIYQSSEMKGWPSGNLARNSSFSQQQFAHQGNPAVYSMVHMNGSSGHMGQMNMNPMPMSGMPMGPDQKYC

[19] = target: Peroxisome proliferator-activated receptor gamma/Nuclear receptor coactivator 2 (Homo sapiens, UniProt P37231); assay: TR-FRET dose response biochemical High Throughput Screening assay for agonists of the steroid receptor coactivator 2 (SRC-2) recruitment by the peroxisome proliferator-activated receptor gamma (PPAR gamma): non-selective agonists. [Related pubchem assays: 1297, 1032 ]; assay type: functional
[20] = target: Peroxisome proliferator-activated receptor gamma/Nuclear receptor coactivator 1 (Homo sapiens, UniProt P37231); assay: TR-FRET dose response biochemical High Throughput Screening assay for agonists of the steroid receptor coactivator 1 (SRC-1) recruitment by the peroxisome proliferator-activated receptor gamma (PPAR gamma): non-selective agonists. [Related pubchem assays (depositor defined):AID1300, AID1808, AID504735, AID631]; assay type: protein assay
[21] = target: Peroxisome proliferator-activated receptor gamma/Nuclear receptor corepressor 2 (Homo sapiens, UniProt P37231+Q9Y618); assay: Counterscreen for NR2E3 inverse agonists: TR-FRET-based biochemical high throughput dose response assay to identify inverse agonists of the interaction between peroxisome proliferator-activated receptor gamma (PPARg) and nuclear receptor co-repressor 2 (NCOR2).; assay type: functional
[22] = target: Photoreceptor-specific nuclear receptor (Homo sapiens, UniProt Q9Y5X4); assay: ligands suppressing NR2E3 nuclear receptor activity – biochemical, TR-FRET, dose response (AID 463256); assay type: functional
Chain of Photoreceptor-specific nuclear receptor (Q9Y5X4 whole entry): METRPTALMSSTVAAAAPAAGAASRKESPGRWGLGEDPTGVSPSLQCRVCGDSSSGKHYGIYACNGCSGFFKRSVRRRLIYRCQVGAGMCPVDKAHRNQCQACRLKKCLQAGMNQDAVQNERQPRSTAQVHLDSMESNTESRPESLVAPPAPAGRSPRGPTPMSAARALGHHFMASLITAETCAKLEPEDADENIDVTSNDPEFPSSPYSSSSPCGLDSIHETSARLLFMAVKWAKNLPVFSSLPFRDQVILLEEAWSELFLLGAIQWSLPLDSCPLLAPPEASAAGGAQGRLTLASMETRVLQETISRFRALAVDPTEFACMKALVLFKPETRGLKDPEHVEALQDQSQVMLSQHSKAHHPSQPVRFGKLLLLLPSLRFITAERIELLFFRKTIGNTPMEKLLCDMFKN

COc1ccc(NC(=O)c2ccc(CN3CCc4ccccc4C3)cc2)cc1
IC50 [1]: 0.513 µM (active)
IC50 (HEK293 [2]): > 20 µM (inactive)
IC50 (Tumor necrosis factor [3]): 0.65 µM (active)

CC1=C(C(=O)NCc2ccccn2)C2(CCC(C)CC2)OC1=O (configuration not stated)
IC50 [4]: > 100 µM (not active)
EC50 [5]: > 53 µM (inactive)
IC50 [6]: > 47.1 µM (inactive)
IC50 [7]: > 100 µM (inactive)

Nc1cc(-c2ccccc2)nn1S(=O)(=O)c1ccc(F)c(Cl)c1
IC50 [8]: > 20 µM (inactive)
IC50 (Tumor necrosis factor [9]): > 20 µM (inactive)
IC50 (HEK293 [10]): > 20 µM (inactive)
IC50 [11]: > 20 µM (inactive)

N#CC1=C2SCN(Cc3ccccc3)CN2C(=O)CC1c1ccc2c(c1)OCO2 (configuration not stated)
IC50 [12]: 36.9 µM (active)
IC50 [13]: 16 µM (active)
IC50 (Phosphomannomutase 2): > 100 µM (inactive)

CN(C)c1ccc(NC(=O)c2sc(SCC(=O)Nc3ccc(Br)cc3)nc2N)cc1
IC50 (SUMO-activating enzyme): 41.5 µM (active)

COC(=O)CC1=NN(c2ccccc2)C(=O)/C1=C/Nc1ccc(C)cc1
IC50 [1]: > 20 µM (inactive)
IC50 (HEK293 [2]): > 20 µM (inactive)
IC50 (Tumor necrosis factor [3]): > 20 µM (inactive)

O=c1n(Cc2ccccc2)c2cc(Cl)cnc2n1Cc1ccccc1
AC50 [14]: 9.18 µM (active)

Cc1cccc(CCNC(=O)CCS(=O)(=O)c2ccc(Br)cc2)c1
EC50 [15]: 22.3 µM (inactive)

Cc1cccc(N(CC(N)=O)C2SC(=O)N(c3ccccc3)C2=O)c1 (configuration not stated)
IC50 [16]: > 66 µM (inactive)
IC50 [4]: > 100 µM (not active)
IC50 [17]: > 66 µM (inactive)
IC50 [7]: > 100 µM (inactive)

Cc1ccc(-c2cc(C(=O)NCc3cn(C)nc3C)c3cc(Br)ccc3n2)cc1
EC50 [18]: 40.7 µM (not active)
EC50 [19]: 10.8 µM (not active)
EC50 [20]: 13.8 µM (inactive)

Cc1nc2ccc3nc(NC(=O)c4ccc5c(c4)OCCO5)sc3c2s1
IC50 [21]: 1.23 µM (active)
EC50 [18]: 10.3 µM (not active)
IC50 [22]: 0.813 µM (active)
EC50 [19]: 3.98 µM (active)
EC50 [20]: 4.06 µM (active)
